# Source: publication PMC6135860 (Neuropsychopharmacology, 2018)
# Where two headings read alike, the source gives them in different places.
# Legend:
# humanized PDE4D mice [1] = assay: Y-maze spontaneous alternation test; assay type: in vivo, mouse
# Experimental: (§1) The test consists of a single 5 min trial, in which the mouse was allowed to explore all three arms of the Y-maze [31]. Spontaneous alternation (%) was defined as consecutive entries in three different arms, divided by the number of possible alternations (total arm entries minus 2).
# (§2) Y-maze spontaneous alternation test. The Y-maze apparatus made of matt blue Plexiglas had three identical arms (L 40 cm, W 5 cm, H 15 cm) placed at 120° from each other. The test consisted of a single 5 min trial, in which the mouse was allowed to explore all three arms of the Y-maze. The start arm was varied between animals to avoid placement bias. Spontaneous Alternation (%) was defined as consecutive entries in 3 different arms, divided by the number of possible alternations (total arm entries minus 2). Mice with less than 8 arm entries during the 5-min trial were excluded from the analysis.
# humanized PDE4D mice [2] = assay: Novel object recognition, 24 h inter-trial interval; assay type: in vivo, mouse
# Experimental: (§3) The novel object recognition test was performed as described elsewhere [32, 33]. Briefly, the task procedure consists of three phases: habituation phase on day 1 for 10 min, training (T1) phase on day 2 for 5 min, and testing (T2) phase on day 3 for 5 min. The duration each animal spent exploring the objects was recorded. Time spent exploring the identical objects in T1 was recorded as a1 and a2; time spent exploring the familiar and the novel objects in T2 was recorded as “a” and “b”, respectively. The following variables were calculated: e1 = a1 + a2, e2 = a + b, the relative discrimination index d2 = (b–a)/e2.
# Novel object recognition. Mice were handled for 3-5 min for 5 days in a row. The novel object recognition test was performed in a Plexiglas open field box (L30 cm, W50 cm, H40 cm) as described elsewhere^64,65. Briefly, the task procedure consists of three phases: habituation, training (T1), and testing (T2). In the habituation phase (day 1), each animal is allowed to freely explore the apparatus for 10 min; then the animal is returned to its home cage. During the training phase (day 2), a single animal is placed in the center of the open field containing two identical objects located on the diagonal of the field, and allowed to explore for 5 min. After a retention interval after T1 of 24 h (long-term recall) or 1 h (scopolamine-impairment model), the animal was subjected to the T2 testing phase for 5 min, during which one familiar object and one novel object were presented. The arena and objects were thoroughly wiped with 70% ethanol after each trial to avoid the presence of any olfactory cues. The animals were considered to be exploring the object when directing their nose to the object at a distance of no more than 2 cm and/or touching or sniffing the object. The duration each animal spent exploring the objects was recorded. Time spent exploring the identical objects in T1 was recorded as a1 and a2; time spent exploring the familiar and the novel objects in T2 was recorded as ‘a’ and ‘b’, respectively. The following variables were calculated: e1 = a1 + a2, e2 = a + b, the relative discrimination index d2 = (b – a)/e2.
# humanized PDE4D mice [3] = assay: Scopolamine-induced memory impairment in novel object recognition, 1 h inter-trial interval; assay type: in vivo, mouse; details: scopolamine 0.1 mg/kg IP 30 min prior to training
# Experimental: The novel object recognition test was performed as described elsewhere. […] The duration each animal spent exploring the objects was recorded. Time spent exploring the identical objects in T1 was recorded as a1 and a2; time spent exploring the familiar and the novel objects in T2 was recorded as “a” and “b”, respectively. The following variables were calculated: e1 = a1 + a2, e2 = a + b, the relative discrimination index d2 = (b–a)/e2.
# For the scopolamine-induced memory impairment models, a single dose of scopolamine (0.1 mg/kg, IP) was administered 30 min before the training session of the NOR. Animals treated with H-89 or vehicle were implanted with 26-gauge guide cannula unilaterally (AP −0.2 mm from Bregma, ML +1 mm from the midline, DV−2mm from skull surface) and rested for a week before any tests.
# Novel object recognition. Mice were handled for 3-5 min for 5 days in a row. The novel object recognition test was performed in a Plexiglas open field box (L30 cm, W50 cm, H40 cm) as described elsewhere^64,65. Briefly, the task procedure consists of three phases: habituation, training (T1), and testing (T2). In the habituation phase (day 1), each animal is allowed to freely explore the apparatus for 10 min; then the animal is returned to its home cage. During the training phase (day 2), a single animal is placed in the center of the open field containing two identical objects located on the diagonal of the field, and allowed to explore for 5 min. After a retention interval after T1 of 24 h (long-term recall) or 1 h (scopolamine-impairment model), the animal was subjected to the T2 testing phase for 5 min, during which one familiar object and one novel object were presented. […] The duration each animal spent exploring the objects was recorded. Time spent exploring the identical objects in T1 was recorded as a1 and a2; time spent exploring the familiar and the novel objects in T2 was recorded as ‘a’ and ‘b’, respectively. The following variables were calculated: e1 = a1 + a2, e2 = a + b, the relative discrimination index d2 = (b – a)/e2.
# [4] = molecular target: PDE4 binding sites in humanized PDE4D mouse brain membranes; assay: [3H]-rolipram radioligand binding to brain membranes; details: for Ki: hPDE4D
# Experimental: (§4) Mice were killed by decapitation, and the brains were immediately dissected on ice and homogenized in binding buffer using a Polytron homogenizer (Brinkman Instruments, Westbury, NY). The membrane fraction of the homogenate was obtained by centrifugation at 15,000 × g for 15 min, and resuspension of the pellet in the binding buffer.
# (§5) Mice were killed by decapitation, and the brains were immediately dissected on ice and homogenized in binding buffer (50 mM Tris-HCl, 5 mM MgCl2, pH 7.5) using a Polytron homogenizer (Brinkman Instruments, Westbury, NY). The membrane fraction of the homogenate was obtained by centrifugation at 15,000 g for 15 min, and resuspension of the pellet in the binding buffer^29.
# (§6) At the end of the incubation, reactions were stopped by adding 5 ml of the ice-cold binding buffer and rapid vacuum filtration through glass fiber filters that had been soaked in 0.3% polyethyleneimine. The filters were then washed twice with 5 ml of the ice-cold binding buffer, and discs of filter paper were collected for measurement of radioactivity by liquid scintillation counting.
# [5] = molecular target: PDE4 binding sites in wild-type mouse brain membranes; assay: as above; details: for Ki: wild-type
# Experimental: as §4, §5, §6
# wild-type mice [6] = assay: Novel object recognition, 24 h inter-trial interval; assay type: in vivo, mouse
# Experimental: as §3
# Novel object recognition. Mice were handled for 3-5 min for 5 days in a row. The novel object recognition test was performed in a Plexiglas open field box (L30 cm, W50 cm, H40 cm) as described elsewhere^64,65. Briefly, the task procedure consists of three phases: habituation, training (T1), and testing (T2). […] The duration each animal spent exploring the objects was recorded. Time spent exploring the identical objects in T1 was recorded as a1 and a2; time spent exploring the familiar and the novel objects in T2 was recorded as ‘a’ and ‘b’, respectively. The following variables were calculated: e1 = a1 + a2, e2 = a + b, the relative discrimination index d2 = (b – a)/e2.
# humanized PDE4D mice [7] = details: 1 mg/kg IP, hPDE4D mice
# wild-type mice [8] = assay: Ketamine/xylazine anesthesia duration (surrogate of emesis); details: 1 mg/kg IP
# wild-type mice [9] = assay: Y-maze spontaneous alternation test; assay type: in vivo, mouse
# Experimental: as §1, §2
# [10] = H-89 1 µg i.c.v. followed by BPN14770 0.03 mg/kg PO, hPDE4D mice
# [11] = inhibition of 2 nM [3H]-rolipram binding, read-out: One-site Ki
# [12] = inhibition of [3H]-rolipram binding, read-out: Two-site Ki1
# [13] = inhibition of [3H]-rolipram binding, read-out: Two-site Ki2
smiles,measurement,setting,value
"O=S(=O)(NCCNC/C=C/c1ccc(Br)cc1)c1cccc2cnccc12 [H-89, reference compound]",effect on memory benefit of BPN14770 in Y-maze,humanized PDE4D mice [1]; [10],significantly antagonized the effect of BPN14770 on memory
same,effect on memory benefit of BPN14770 in NOR,humanized PDE4D mice [2]; [10],significantly antagonized the effect of BPN14770 on memory
"CN1[C@@H]2C[C@@H](OC(=O)[C@H](CO)c3ccccc3)C[C@H]1[C@@H]1O[C@@H]12 [scopolamine, reference compound]",effect on short-term memory in NOR,humanized PDE4D mice [3],abolished short-term memory formation
COc1ccc(C2CNC(=O)C2)cc1OC1CCCC1 (centres unmarked) [[^3H]-rolipram],Kd,"[4]; humanized PDE4D mouse brain membranes, read-out: Kd of [3H]-rolipram saturation binding",3.72 nM
same,Kd,"[5]; wild-type mouse brain membranes, read-out: Kd of [3H]-rolipram saturation binding",3.84 nM
COc1ccc(C2CNC(=O)C2)cc1OC1CCCC1 (centres unmarked) [Rolipram],MED in Y-maze,humanized PDE4D mice [1]; humanized PDE4D mice,0.1 mg/kg IP
same,MED in NOR,wild-type mice [6],0.1 mg/kg IP
same,MED in NOR,"humanized PDE4D mice [2]; humanized PDE4D mice, 24 h inter-trial interval",0.1 mg/kg IP
same,effect on ketamine/xylazine anesthesia duration,humanized PDE4D mice [7],significantly reduced the anesthesia duration
same,Ki,[4]; [11],1.66 ± 0.07 nM
same,Ki,[4]; [12],0.39 ± 0.07 nM
same,Ki,[4]; [13],6.1 ± 0.79 nM
same,effect on ketamine/xylazine anesthesia duration,wild-type mice [8],significantly reduced the anesthesia duration
same,Ki,[5]; [11],1.99 ± 0.11 nM
same,Ki,[5]; [12],0.75 ± 0.33 nM
same,Ki,[5]; [13],34.1 ± 26.8 nM
same,MED in Y-maze,wild-type mice [9],0.1 mg/kg IP
